# Measurements reported in US20190111016A1, “METHODS OF TREATING MUSCLE AND LIVER DISORDERS” (The Regents of the University of California, priority 2016, published 2019).
# Counter-ions that a name gives are not always drawn.
# Experiments:
# C57BL/6 wild-type mice [1] = assay: mtDNA copy number (mt-Nd1/Cftr) by qPCR in tissues of DMF-dosed mice; assay type: in vivo, mouse; settings: 10 mg/kg DMF i.p. daily, two weeks
# Procedure: (§1) C57BL/6 wild-type mice were housed in a vivarium maintained at 22° C.-24° C. and 40%-60% relative humidity with a 12-hour light/12-hour dark cycle. All experimental procedures were approved by the University of California Institutional Animal Care and Use Committee.
# (§2) The stock dimethyl fumarate solution was made by dissolving 50 mg/ml of DMF into DMSO. Prior to injection, 0.5 mg/ml of working DMF solution (1:100 dilution) was made by diluting the stock solution into phosphate-buffered saline with 5% Tween-20 and 5% Polyethylene glycol (Sigma-Aldrich, St. Louis, Mo., USA). The mice were injected intraperitoneally every day for 14 days with 10 mg/kg of DMF.
# (§3) The mice were euthanized with CO2 followed by cervical dislocation and tissues were immediately removed then flash frozen with liquid nitrogen. Samples were stored in −80° C. until utilized for experiments.
# (§4) Total DNA was extracted from human fibroblast and mouse tissues using DNeasy plus mini kit and DNeasy blood & tissue kit (Qiagen, Valencia, Calif., USA), respectively, following manufacturer's instruction. DNA was quantified by a NanoDrop 2000c Spectrophotometer (Thermo Scientific, Waltham, Mass., USA).
# (§5) cDNA was synthesized from mRNA with iScript cDNA Synthesis Kit (Bio-Rad Laboratories, Hercules, Calif., USA) per manufacturer's instruction in a C1000 Touch Thermal Cycler (Bio-Rad Laboratories, Hercules, Calif., USA). A SensiFAST SYBR No-ROX Kit (Bioline, Taunton, Mass., USA) was used to perform qPCR on the synthesized cDNA in a Roche Lightcycler 480 (Roche Diagnostics, Indianapolis, Ind., USA). The second derivative of the amplification curve was used to determine the cycle threshold, and the data were analyzed by a delta delta CT calculation.
# (§6) To understand whether the DMF-dependent mitochondrial biogenesis is only applicable to the human fibroblast cells, we examined the effects of DMF on wild type C57BL/6 mice. The mice were dosed with 10 mg/kg DMF daily, and skeletal muscle, cerebellum, liver, and heart tissues were collected after two weeks of treatment We utilized qPCR to analyze, mtDNA copy number as ratio of mt-Nd1 to Cftr and mitochondrial complex expression, in these tissues.
# C57BL/6 wild-type mice [2] = assay: qPCR of mitochondrial complex subunit expression in tissues of DMF-dosed mice; assay type: in vivo, mouse; settings: 10 mg/kg DMF i.p. daily, two weeks
# Procedure: as §1, §2, §3, §5, §6
# MS patients [3] = assay: qPCR of mitochondrial complex subunit expression in PBMCs of MS patients before and after DMF treatment; assay type: in vivo, human
# Description: (§7) The local Ethics Committee of the University Federico II of Naples, approved the study. Patients were recruited from the Multiple Sclerosis Center of the Federico II University of Naples. All patients gave written informed consent before any activity linked to the study was started. Healthy controls were recruited at the clinic through students and site personnel. The study included 12 MS patients and 11 healthy individuals. Samples were obtained on the day before and after 3 months of continuous DMF treatment. Whole blood was collected in EDTA containing Leucosep® tubes (Greiner bio-one, Frickenhausen, Germany) and frozen at −80° C. until analysis. PBMCs were isolated from 30 mL of EDTA anticoagulated whole blood for RNA extraction.
# (§8) Total RNA was extracted from human fibroblast cells and PBMCs from whole blood using RNeasy plus mini kit (Qiagen, Valencia, Calif.) and RIboPure RNA Purification Kit (ThermoFisher Scientific, Waltham, Mass., USA), respectively following manufacturers instruction. RNA quantity and quality was measured by a NanoDrop 2000c Spectrophotometer (Thermo Scientific, Waltham, Mass., USA).
# as §5
# DMF is a FDA approved drug, currently being used to treat adult patients with relapsing form of MS. To confirm whether DMF is contributing to mitochondrial biogenesis when given to human patients, we used qPCR to study mitochondrial DNA copy number and mitochondrial complex subunit expression in peripheral blood lymphocytes isolated from 11 MS patients at baseline and those same patients 3 months after DMF treatment, and 10 controls. We see significant increase in mitochondrial DNA copy number by 71% (p<0.0075, n=11) in MS patients' treated with DMF for 3 months compared to its own baseline [FIG. 4A].
# MS patients [4] = assay: mtDNA copy number (MT-TL1/B2M) by qPCR in PBMCs of MS patients before and after DMF treatment; assay type: in vivo, human; settings: 3 months DMF treatment
# Description: as §7, §5
# DMF is a FDA approved drug, currently being used to treat adult patients with relapsing form of MS. […]
# HCAR2 = assay: DMF treatment of HCAR2 siRNA knockdown human fibroblasts, qPCR; assay type: cell-based; settings: HCAR2 siRNA 48 hours, then DMF 48 hours
# Procedure: (§9) Fibroblast cells were seeded in six-well plates at 0.2×10^6 cells per well and transfected with negative control siRNA (cat. 12935300, Thermo-Fisher, Waltham, Mass., USA), pooled Nrf2 siRNA (cat. HSS107130, HSS181505, HSS181506, Thermo-Fisher, Waltham, Mass., USA) or pooled HCAR2 siRNA (cat. L-006688-02-0005, Dharmacon, Lafayette, Colo., USA) using Lipofectamine RNAiMAX following manufacturer's instruction. After a 48-hour incubation, subsequent drug treatment was conducted with the cells.
# as §5, with “A SensiFAST SYBR No-ROX Kit (Bioline, Taunton, Mass., USA) was used to perform qPCR on the synthesized cDNA in a Roche Lightcycler 480 (Roche Diagnostics, Indianapolis, Ind., USA).” left out
# (§10) DMF is known to mediate antioxidant cellular defense by Nrf2 activation, and it suppresses inflammatory signaling by binding to and activating HCAR2 (11, 15). To further understand the Nrf2 and HCAR2 dependent effects of DMF on mitochondrial biogenesis, we analyzed changes in mitochondrial proliferation in Nrf2 siRNA knockdown and HCAR2 siRNA knockdown fibroblasts.
# Nrf2 = assay: DMF treatment of Nrf2 siRNA knockdown human fibroblasts, qPCR; assay type: cell-based; settings: then DMF 48 hours
# Procedure: as §9, §5, §10
# human fibroblasts = assay: Oxygen consumption rate in DMF-treated fibroblasts by Seahorse XF Analyzer; assay type: cell-based; settings: 48 hours
# Procedure: Fibroblast cell lines were seeded at a density of 60,000 cells/well in 200 μL of culture medium in a 24-well seahorse tissue culture plate (Seahorse Biosciences, Billerica, Mass., USA). Following a 24-hour incubation, the media was replaced and incubated with 200 μL of 0.1% DMSO or 3 μM, 10 μM and 30 μM dimethyl fumarate in 0.1% DMSO. Prior to reading the oxygen consumption, the medium was changed to unbuffered DMEM without phenol red (Corning, Inc., Corning, N.Y., USA), 10% fetal bovine serum (JR-Scientific, Woodland, Calif., USA), […] glutamax, […] sodium pyruvate, 25 mM glucose (Invitrogen, Waltham, Mass., USA) and was adjusted to pH 7.4. Cells were pre-equilibrated for 20 min; oxygen consumption rate (OCR) and proton production rate (PPR) were recorded with the Seahorse XF-24 after sequential addition of oligomycin (1 ug/ml), FCCP (10 μM) and a combination of antimycin A (1 μM) and rotenone (1 μM) (Sigma-Aldrich, St. Louis, Mo., USA). Total protein in each well was measured and protein concentration was used to normalize the readings.
# To elucidate the bioenergetic effects of DMF-dependent increases in mitochondrial copy number and mitochondrial complex expression in human fibroblasts, oxygen consumption rate (OCR) was measured. Human fibroblasts were treated with 0.1% DMSO, 3 μM, 10 μM or 30 μM DMF for 48 hours, and oxygen consumption rate (OCR) was sequentially measured in the presence of oligomycin (complex 5 inhibitor), FCCP (mitochondrial uncoupler), and rotenone/antimycin A (Complex 1/3 inhibitor) [FIG. 2A]. […] Consistent with the idea that DMF increases mitochondrial copy number and mitochondrial complex expression; the effects of DMF are nullified in the presence of oligomycin and rotenone/antimycin A, which inhibits the mitochondrial electron transport chain that is responsible for mitochondrial oxygen consumption.
# [5] = test system: healthy human fibroblast cell line AG09429; assay: qPCR of TFAM and mitochondrial complex subunit mRNA in DMF-treated human fibroblasts; assay type: cell-based; settings: for average induction of all the mitochondrial complexes (subunit mRNA) compared to vehicle / expression of mitochondrial biogenesis marker TFAM compared to vehicle control: 48 hours
# Procedure: (§11) The healthy human fibroblast cell line AG09429 (Coriell Institute, Camden, N.J., USA) was maintained at 37° C. in a humidified atmosphere with 5% CO2. DMEM (Corning, Inc., Corning, N.Y., USA) supplemented with 10% fetal bovine serum (JR-Scientific, Woodland, Calif., USA), 1× Penicillin-Streptomycin Solution (Corning, Inc., Corning, N.Y., USA) was used as growth media. Media was changed every two days.
# (§12) The human fibroblasts were plated in a 12-well format at 0.1×10^6 cells per well. The cells were incubated with 0.1% DMSO as vehicle control or 3-30 μM of dimethyl fumarate (Sigma-Aldrich, St. Louis, Mo., USA) dissolved in DMSO. Total RNA and DNA were extracted following a 48-hour incubation period.
# as §8, §5
# To elucidate whether increased mitochondrial proliferation affects the abundance of the ETC mitochondrial complexes, qPCR analysis was performed to quantify the mRNA expression of numerous complex subunits: complex 1 subunits MT-ND2 and MT-ND6, complex 2 subunits SDHA and SDHB, […], and complex 5 subunits ATP5B and MT-ATP6 [Table 1]. […] Taken together, human fibroblast cells increased mitochondrial biogenesis measured by mtDNA copy number, mitochondrial proliferator marker TFAM expression and mitochondrial complex expression.
# [6] = test system: healthy human fibroblast cell line AG09429; assay: mtDNA copy number (mtDNA/nDNA, MT-TL1/B2M) by qPCR in DMF-treated human fibroblasts; assay type: cell-based; settings: 48 hours
# Procedure: as §11, §12, §4, §5
# Healthy human fibroblast cells were treated with 0.1% DMSO (vehicle), 3 μM, 10 μM or 30 μM DMF for 48 hours. Mitochondrial DNA (mtDNA) copy number was analyzed from total DNA isolates by measuring the ratio of mitochondrial to nuclear DNA (mtDNA/nDNA). Primers used to amplify mitochondrial DNA and nuclear DNA by qPCR were mitochondrially-encoded tRNA leucine 1 (MT-TL1) and Beta 2 microglobulin (B2M) respectively. […]
# [7] = MS patients, 3 months DMF treatment
compound,measurement,setting,value
"COC(=O)/C=C/C(=O)OC [DMF, dimethyl fumarate]",increase in mtDNA copy number,C57BL/6 wild-type mice [1]; cerebellum,1.29 fold
same,change in mtDNA copy number,C57BL/6 wild-type mice [1]; heart,no significant change
same,increase in mtDNA copy number,C57BL/6 wild-type mice [1]; liver,1.34 fold
same,increase in mtDNA copy number,C57BL/6 wild-type mice [1]; skeletal muscle,1.45 fold
same,increase in mt-Atp6 (complex 5) expression,C57BL/6 wild-type mice [2]; cerebellar tissue,1.82 fold
same,increase in mt-Co1 (complex 4) expression,C57BL/6 wild-type mice [2]; cerebellar tissue,1.92 fold
same,induction of mitochondrial complexes,C57BL/6 wild-type mice [2]; liver or heart tissues,more minor
same,increase in mt-Atp6 (complex 5) expression,C57BL/6 wild-type mice [2]; skeletal muscle,1.77 fold
same,increase in mt-Co1 (complex 4) expression,C57BL/6 wild-type mice [2]; skeletal muscle,2.38 fold
same,increase in mt-Nd2 expression,C57BL/6 wild-type mice [2]; skeletal muscle,4.68 fold
same,"recovery in average mitochondrial gene expression (mt-ND6, mt-CYB, mt-CO2, mt-ATP6)","MS patients [3]; MS patients following 3 months DMF treatment, relative to healthy individuals",88%
same,increase in mt-ATP6 (complex 5) expression normalized to own baseline,MS patients [3]; [7],3.74 fold
same,increase in mt-CO2 (complex 4) expression normalized to own baseline,MS patients [3]; [7],2.34 fold
same,increase in mt-CYB (complex 3) expression normalized to own baseline,MS patients [3]; [7],2.87 fold
same,increase in mt-ND6 (complex 1) expression normalized to own baseline,MS patients [3]; [7],3.13 fold
same,mitochondrial DNA copy number compared to healthy control group,MS patients [4],back to healthy control level
same,increase in mitochondrial DNA copy number compared to own baseline,MS patients [4]; peripheral blood lymphocytes,71%
same,"inducibility of NRF1, mtDNA copy number and mitochondrial complex 2-5 subunit gene expression, siHCAR2+DMF compared to siCTL+DMF",HCAR2,no significant difference
same,inducibility of complex 1 subunit MT-ND2 by DMF when HCAR2 is knocked down,HCAR2,uninducible
same,"expression of Nrf2, NQO1 and mtDNA copy number, siNrf2+DMF compared to siNrf2 cells",Nrf2; Nrf2 siRNA 48 hours,significantly increases
same,induction of TFAM and NRF1 in siNrf2+DMF,Nrf2; Nrf2 siRNA 48 hours,no significant induction
same,mitochondrial complex expression in siNrf2+DMF cells (exception: complex 4),Nrf2; Nrf2 siRNA 48 hours,general reduction
same,"Nrf2, NQO1, TFAM, NRF1 and mtDNA copy number, siCNT+DMF compared to siCNT",Nrf2; control siRNA 48 hours,significant induction
same,"maximal OCR after FCCP injection, relative increase compared to vehicle control",human fibroblasts; 3 μM DMF,1.20 fold
same,"basal OCR, relative increase compared to vehicle control",human fibroblasts; 10 μM DMF,1.59 fold
same,"maximal OCR after FCCP injection, relative increase compared to vehicle control",human fibroblasts; 10 μM DMF,1.35 fold
same,"basal OCR, relative increase compared to vehicle control",human fibroblasts; 30 μM DMF,1.66 fold
same,"maximal OCR after FCCP injection, relative increase compared to vehicle control",human fibroblasts; 30 μM DMF,1.47 fold
same,"OCR in the presence of oligomycin and rotenone/antimycin A, DMF groups vs vehicle control","human fibroblasts; 3, 10, 30 μM DMF",not significantly different
same,average induction of all the mitochondrial complexes (subunit mRNA) compared to vehicle,[5]; 10 μM DMF,1.42 fold
same,expression of mitochondrial biogenesis marker TFAM compared to vehicle control,[5]; 10 μM DMF,increased
same,average induction of all the mitochondrial complexes (subunit mRNA) compared to vehicle,[5]; 30 μM DMF,2.65 fold
same,expression of mitochondrial biogenesis marker TFAM compared to vehicle control,[5]; 30 μM DMF,increased
same,expression of complex 5 subunits in response to DMF compared to other complex subunits,[5]; DMF 48 hours,less increased
same,change in mtDNA copy number compared to vehicle control,[6]; 3 μM DMF,no changes
same,increase in mtDNA copy number compared to vehicle control,[6]; 10 μM DMF,1.51 fold
same,increase in mtDNA copy number compared to vehicle control,[6]; 30 μM DMF,1.75 fold
